Data on two compounds can be found in patent US20100249058A1, “FEED ADDITIVE AND FEED” (IDEMITSU KOSAN CO., LTD., priority 2006, published 2010).

Format in all cases: cell-based
Experiment [1] concerns Staphylococcus epidermidis. The experiment is described as follows: Minimum inhibitory concentration (MIC) measurement. To be noted: 37° C., about 20 hours, aerobic. How it is done: (§1) Minimum inhibitory concentrations (MICs) of each of the bacteria shown in Table 1 were measured for the MEL and rhamnolipids by the following procedures.
(§2) The above-mentioned bacteria were precultured in a bouillon medium for sensitivity determination (NISSUI PHARMACEUTICAL CO., LTD.). The concentrations of the bacteria in the culture solutions were adjusted to about 1.0×10^5 to 10^6 CFU/ml with physiological saline, and the bacteria were inoculated into the measurement mediums. As the measurement mediums, a medium for sensitivity measurement (NISSUI PHARMACEUTICAL CO., LTD.) was used for Staphylococcus aureus, Staphylococcus epidermidis, and Bacillus subtilis, and a blood agar medium (heart infusion medium: NISSUI PHARMACEUTICAL CO., LTD., sheep sterile defibrinated blood: Kohjin Bio Co. Ltd.) was used for Streptococcus suis and Streptococcus bovis. Culture was performed at 37° C. for about 20 hours under aerobic conditions for Staphylococcus aureus, Staphylococcus epidermidis, and Bacillus subtilis or under 5% CO2 conditions for Streptococcus suis and Streptococcus bovis. After completion of culture, the MICs were measured.
(§3) The MEL crude purified product obtained in section <1> (purity 69%) was used as MEL, and the rhamnolipid crude purified product obtained in section <2> (purity 55%) was used as rhamnolipids. Meanwhile, for the purpose of comparison, MICs of sucrose ester (sucrose manodecanoate: manufactured by SIGMA-ALDRICH Japan K.K.), mannose (manufactured by Wako Pure Chemical Industries, Ltd.), and rhamnose (manufactured by SIGMA-ALDRICH Japan K.K.) were measured.

Experiment [2] has as its system Bacillus subtilis. As to the kind of experiment: Minimum inhibitory concentration (MIC) measurement. To be noted: 37° C., about 20 hours, aerobic. How it is done:
as §1, §2, §3

Experiment [3] deals with Streptococcus bovis. The experiment is described as follows: Minimum inhibitory concentration (MIC) measurement. Particulars: blood agar medium, 37° C., about 20 hours, 5% CO2. As for the experimental part:
as §1, §2, §3

The subject of experiment [4] is Staphylococcus aureus. The experiment is described as follows: Minimum inhibitory concentration (MIC) measurement. To be noted: 37° C., about 20 hours, aerobic. How it is done: as §1, §2, §3
The test system of experiment [5] is Streptococcus suis. As to the kind of experiment: Minimum inhibitory concentration (MIC) measurement. Particulars: blood agar medium, 37° C., about 20 hours, 5% CO2. How it is done:
as §1, §2, §3

Experiment [6] deals with Staphylococcus, Streptococcus, and Bacillus bacteria. The experiment is described as follows: Evaluation of antibiotic activities (summary over the tested bacteria). To be noted: result in words. As for the experimental part:
as §1
as §2, with “Culture was performed at 37° C. for about 20 hours under aerobic conditions for Staphylococcus aureus, Staphylococcus epidermidis, and Bacillus subtilis or under 5% CO2 conditions for Streptococcus suis and Streptococcus bovis.” left out
as §3

`C[C@H](O)[C@H](O)[C@@H](O)[C@@H](O)C=O` [Rhamnose, rhamnose]: the “Minimum inhibitory concentration (MIC)” value in experiment [1], in experiment [2], in experiment [3], in experiment [4] and in experiment [5] was less than 1600 in each case. In addition, in experiment [6], the antibiotic activities entry is “no antibiotic activities”.
With sucrose manodecanoate [Sucrose ester], the “Minimum inhibitory concentration (MIC)” value is listed as less than 1600 in experiment [1]; 400 in experiment [2]; 800 in experiment [3]; less than 1600 in experiment [4]; 800 in experiment [5].
